In one data set the test system is DU145. The data set can be described thus: Growth inhibition by MTT, DU145 prostate cancer cells. The class given is cell-based, Human. As to conditions: Homo sapiens, DU-145; MTT, 72 h exposure; read-out: IC50 DU145. The protocol:
(§1) Growth inhibitory effects of NATURA and other agents on human cancer cells were determined by standard MTT (3-(4,5-dimethylthiazol-2-yl)-2,5-diphenyltetrazolium bromide Test) as described previously. Briefly, cancer cells grown exponentially were aliquoted into 96-well plates at a density of 5000 cells/200 μl per well in RPMI 1640 medium containing 10% FBS overnight. The cells in the plates were then exposed to series of dilution of indicated agent. After 72 h of incubation, 100 μl of the medium was removed from each of the wells and 50 μl of a 1 mg/ml solution of 3-(4,5-dimethylthiazol-2-yl)-2,5-diphenyltetrazolium bromide (MTT) was added to each well and the cells were incubated for additional 4 h. 200 μl of solution of 0.04 N HCl-isopropanol was added to each well to dissolve the black fromazan participates, and absorbance at 540 nm was measured on a 96-Well.

The next data set has as its system ML-1 cells. The data set can be described thus: Morphological differentiation of ML-1 cells. As to conditions: 5 days after exposure. The class given is cell-based, human.
The test system of another data set is Walker 256. The data set can be described thus: Anticancer activity against Walker 256 sarcoma.
Data set [1] is described as follows: Acute toxicity, median lethal dose LD50. The note with it: for DFP (Frequency of Death): mice, oral, two weeks. As for the experimental part: The animals were given Meisoindigo suspension orally at dosage of 0, 1.85, 2.60, 3.60, 5.10, 7.14, and 10.00 g/kg respectively. The animals were tested for two weeks, and the LD50 was measured using modified Bliss method as follows.
LD50 was calculated using following equation: LD50=log^−1 [Xm−i(ΣDFP−0.5)]
Here, Xm is the maximal frequency of death, Xm=I in this case; i is the distance of group. It is determined by following equation, in this case r=1.4 i=log 1/r=0.146

Data set [2] has as its system poly(ADP-ribose) polymerase (PARP). In words: PARP degradation by Western blot in N2A cells. Type of data set: cell-based, Mouse. As to conditions: 24 hours. The protocol:
Induction of Apoptosis: As we mentioned previously that cancer cells probably have two options after arrest at G1 phase, i.e. differentiation or apoptosis. […] The cells were harvested, washed and DNA extracted. Approximately 2 μg per lane of DNA were subjected to 2% agarose gel electrophoresis. […] The cells were harvested, washed, and total proteins extracted for determination of PARP degradation by Western blotting as described previously. Upper panels (A & B) are imagines from ECL films, and lower panels (A′ & B′) are densities of the corresponding bands measured by an Imagine Densitometer (expressed as the percent of control).
Background: In western blotting, separated proteins are transferred to a membrane and probed.

The next data set deals with DLD-1. The data set can be described thus: Growth inhibition by MTT, DLD-1 colon cancer cells. Type of data set: cell-based, Human. The note with it: Homo sapiens, DLD-1, 72 h exposure. As for the experimental part:
as §1
as §1, with “FIGS. 3-5 show the anticancer affects” for “Growth inhibitory effects”, “NATURA in MCF-7 breast cancer cells, DLD-1 colon cancer cells,” for “NATURA”, “LNCaP hormone-dependent prostate” for “other agents on human”, “cells. The” for “cells were determined by standard MTT (3-(4,5-dimethylthiazol-2-yl)-2,5-diphenyltetrazolium bromide Test) as described previously. Briefly,”, “fetal bovine serum (FBS)” for “FBS”, “96-Well Microplate Reader. Each experiment was repeated at least three times.” for “96-Well.”

The subject of the next data set is MCF-7. In words: Growth inhibition by MTT, MCF-7 breast cancer cells. The note with it: Homo sapiens, MCF7, 72 h exposure. Type of data set: cell-based, Human. The protocol:
as §1
as §1, with “FIGS. 3-5 show the anticancer affects” for “Growth inhibitory effects”, “NATURA in MCF-7 breast cancer cells, DLD-1 colon cancer cells,” for “NATURA”, “LNCaP hormone-dependent prostate” for “other agents on human”, “cells. The” for “cells were determined by standard MTT (3-(4,5-dimethylthiazol-2-yl)-2,5-diphenyltetrazolium bromide Test) as described previously. Briefly,”, “fetal bovine serum (FBS)” for “FBS”, “96-Well Microplate Reader. Each experiment was repeated at least three times.” for “96-Well.”

A further data set relates to PC-3. The data set can be described thus: Growth inhibition by MTT, PC-3 prostate cancer cells. Type of data set: cell-based, Human. The note with it: Homo sapiens, PC-3; MTT, 72 h exposure; read-out: IC50 PC-3. As for the experimental part:
as §1

The next data set deals with LNCaP cells. The data set can be described thus: DNA fragmentation (ladder) in LNCaP cells. As to conditions: 15 μM, 2 days. The class given is cell-based, Human. The protocol: Once cancer cells have been arrested at G1 phase by either derivatives of the invention, such as, Meisiondigo or NATURA, they will either differentiate or enter apoptosis. […] FIG. 8 confirms that Meisoindigo and NATURA cause apoptosis. The formation of DNA fragmentation (ladder) were measured, an indicator of cell apoptosis, in both LNCaP prostate and N2A neuroblastoma cells. To do this LNCaP and neuroblastoma N2A cells at exponential growth phase were exposed to indicated concentrations of Meisoindigo or NATURA or Taxol (20 nM, as a positive control) for 2 days. The cells were harvested, washed and DNA extracted. Approximately 2 μg per lane of DNA were subjected to 2% agarose gel electrophoresis.
Induction of Apoptosis: As we mentioned previously that cancer cells probably have two options after arrest at G1 phase, i.e. differentiation or apoptosis. […] To confirm our hypothesis and earlier observations, we measured poly(ADP-ribose) polymerase (PARP) degradation and the formation of DNA fragmentation (ladder), indicators of cell apoptosis, in both LNCaP prostate and N2A neuroblastoma cells. LNCaP and neuroblastoma N2A cells at exponential growth phase were exposed to indicated concentrations of Meisoindigo or NATURA or Taxol (20 nM, as a positive control) for 2 days. The cells were harvested, washed and DNA extracted. […]

The next data set concerns LOVO. The data set can be described thus: Growth inhibition by MTT, LOVO colon cancer cells. The class given is cell-based, Human. The note with it: Homo sapiens, LoVo; MTT, 72 h exposure; read-out: IC50 LOVO. As for the experimental part: as §1
The test system of a further data set is human cancer cell lines. The data set can be described thus: Growth inhibition by MTT, all tested human cancer cell lines. The class given is cell-based. The note with it: Homo sapiens, 72 h, read-out: IC50, growth inhibitory effects on all tested human cancer cell lines, range over breast, colon, prostate lines, three day exposure. As for the experimental part:
as §1

Setting [3] is: Walker 256, rat, oral, Indirubin 100 × 9, Meisoindigo 106 × 9 mg/kgxd.

Each structure is given as a SMILES string.

For orientation: IC50 means the midpoint of a concentration-inhibition curve. As a reminder, the LD50 is the dose expected to kill half of the subjects tested. Low values mean a more toxic substance, high ones a less toxic substance.

Protocol for Walker 256: Anticancer activity against Walker 256: Wistar rats with body weights between 50 to 55 grams, were randomly divided into several groups, ten of each, respectively. Approximately 2×10^6 of the Walker sarcoma cells were transplanted into a Wistar rat. Twenty-four hours after the transplantation, equal molar dosage (0.384 mM/kg) of NATURA or other sugar derivatives were given orally for 10 days. The animals in the control group were given 0.1 ml saline (drug vehicle, negative control) for the same periods of time as treated group. Twenty-four hours after the last administration, the animals were sacrificed and tumors were removed and weighed.
Briefly, C57 mice, body weight between 18 to 22 grams, and rat, body weight between 50 to 55 grams, were randomly divided into several groups, ten of each, respectively. Approximately 2×10^6 of Lewis cancer cells or Walker sarcoma cells were transplanted into mice or rat. […] The animals in the control group were given 0.1 ml saline (drug vehicle, negative control) for the same periods of time as treated group. The animals at end of the treatment were sacrificed and tumors were removed and weighed.
In order to assess the anticancer activities of NATURA and other sugar derivatives, Wistard rats transplanted with W256 were given the same molar of the tested compounds (0.384 mM/kg) for the same period of time (10 days).

In the case of `CN1C(=O)/C(=C2/C(=O)Nc3ccccc32)c2ccccc21` [Meisoindigo], the half-maximal inhibitory concentration (IC50) was 8.31 ± 0.93 µM with DU145; 2.15 ± 0.17 µM in the data set on DLD-1; 4.37 ± 0.31 µM in the data set with MCF-7; 3.26 ± 0.51 µM in the data set on PC-3; 5.76 ± 0.72 µM in the data set on LOVO; 2.15 to 8.31 µM in the data set with human cancer cell lines. The “ML-1 cells differentiated morphologically” value with ML-1 cells is recorded as “approximately 48%”. Further, the “Inhibition (%)” value in the data set with Walker 256 (setting [3]) amounted to 71.6 ± 3.1%. The “Tumor Size X ± SD” value with Walker 256 (setting [3]) amounted to 2.10 ± 0.17. Also, the “Unit of DF” value in data set [1] (Dose 1.86 g/kg) is 2.674. Besides, the “[DF]^2P^2” value in data set [1] (Dose 1.86 g/kg) is 0. The same compound gave an LD50 at 2 weeks in data set [1] (Kuan Ming, mouse, in vivo, po) of 3900 ± 800 mg/kg. This compound also showed an LD50 in [1] (Kuan Ming, mouse, in vivo, po, 2 weeks) of 3900 ± 800 mg/kg. Further, the “DFP (Frequency of Death)” value in data set [1] (Dose 1.86 g/kg) stood at 0; in data set [1] (Dose 2.60 g/kg) it was 0.20; in data set [1] (Dose 3.60 g/kg), 0.60; in data set [1] (Dose 5.10 g/kg) it was 0.70; in data set [1] (Dose 7.14 g/kg), 0.80; in data set [1] (Dose 10.00 g/kg) it was 1.00. The PARP protein degradation result in data set [2] is “strong induction”. For the same compound, the DNA fragmentation entry in the data set on LNCaP cells is recorded as “significant DNA fragmentation”.
Take `CC(=O)OC1COC(N2C(=O)/C(=C3/C(=O)Nc4ccccc43)c3ccccc32)C(OC(C)=O)C1OC(C)=O` [NATURA, 1-(β-D-O-Triacetyl-xylopyranosyl)-isoindigo]: the IC50 in the data set with DU145 is 6.92 ± 0.73 µM; in the data set on DLD-1, 1.64 ± 0.181 µM; in the data set on MCF-7 it was 2.91 ± 0.28 µM; in the data set with PC-3 it was 2.41 ± 0.39 µM; in the data set with LOVO, 4.31 ± 0.59 µM; in the data set on human cancer cell lines, 1.64 to 6.92 µM. The “ML-1 cells differentiated morphologically” value in the data set on ML-1 cells is “approximately 48%”. The “Percent of Inhibition against Walker 256” value is 77% in the data set with Walker 256 (Wistar rats, 0.384 mM/kg orally for 10 days) and 77.5% in the data set on Walker 256 (Wistar rats, 0.384 mM/kg orally for 10 days; listed as Xyl-Ac*NATURA)). Also, the LD50 at 2 weeks in data set [1] (Kuan Ming, mouse, in vivo, po) is 7330 ± 1150 mg/kg. Moreover, the PARP protein degradation entry in [2] is “strong induction”. Also, the DNA fragmentation entry in the data set with LNCaP cells was “significant DNA fragmentation”.

The values above are taken from patent US6933315B2, “Derivatives of isoindigo, indigo and indirubin and methods of treating cancer” (priority 2001, dated 2005).
